Source: ChEMBL document CHEMBL1201862, “PubChem BioAssay data set” (2004)
Calls of active or inactive are those of the source. Rule as the data show it: actives have a measured IC50 and inactives only a lower limit.

Molecular target: Envelope glycoprotein gp160 (Human immunodeficiency virus 1, UniProt Q6QLK5)
Experiment: inhibitors of HIV fusion peptide binding, primary screen, biochemical, uHTS, fluorescence dequenching (AID 1986)

Envelope glycoprotein gp160, sequence (Q6QLK5 whole entry, the tested form may be a part): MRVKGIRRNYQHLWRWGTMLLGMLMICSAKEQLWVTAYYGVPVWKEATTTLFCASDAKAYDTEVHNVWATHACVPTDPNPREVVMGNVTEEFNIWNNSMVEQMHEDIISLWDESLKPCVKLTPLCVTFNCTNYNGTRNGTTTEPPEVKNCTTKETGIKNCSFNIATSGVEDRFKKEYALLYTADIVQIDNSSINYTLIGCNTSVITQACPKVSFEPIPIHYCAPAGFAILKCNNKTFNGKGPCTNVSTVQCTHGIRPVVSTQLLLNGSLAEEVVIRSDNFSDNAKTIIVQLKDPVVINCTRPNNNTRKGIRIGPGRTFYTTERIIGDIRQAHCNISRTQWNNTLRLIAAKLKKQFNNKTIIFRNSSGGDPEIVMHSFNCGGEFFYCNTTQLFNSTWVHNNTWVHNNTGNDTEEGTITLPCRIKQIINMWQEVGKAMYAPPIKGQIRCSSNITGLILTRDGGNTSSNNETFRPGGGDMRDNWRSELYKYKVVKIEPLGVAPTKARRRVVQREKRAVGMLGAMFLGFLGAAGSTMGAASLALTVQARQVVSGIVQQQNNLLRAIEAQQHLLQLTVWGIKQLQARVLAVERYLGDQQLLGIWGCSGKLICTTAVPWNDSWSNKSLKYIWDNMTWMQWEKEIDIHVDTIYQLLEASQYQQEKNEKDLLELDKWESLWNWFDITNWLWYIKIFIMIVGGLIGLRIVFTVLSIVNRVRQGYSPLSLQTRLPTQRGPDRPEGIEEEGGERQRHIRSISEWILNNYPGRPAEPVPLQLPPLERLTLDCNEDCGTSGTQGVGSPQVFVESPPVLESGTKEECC

Row | Structure (SMILES) | IC50
1 | NC(=O)Cn1cc(C=C2C(=O)NC(=O)NC2=O)c2ccccc21 | 69.2 µM (active)
2 | Cc1ccc(NC(=O)COc2cccc(/C=C3\SC(=S)N(CCC(=O)O)C3=O)c2)cc1Cl | 12.2 µM (active)
